Laboratory results from publication PMC9763021, “Comprehensive Assessment of Biomolecular Interactions of Morpholine-Based Mixed Ligand Cu(II) and Zn(II) Complexes of 2,2′-Bipyridine as Potential Anticancer and SARS-CoV-2 Agents: A Synergistic Experimental and Structure-Based Virtual Screening” (Bioinorganic Chemistry and Applications, 2022).

system: CT-DNA; test: DNA cleavage by gel electrophoresis in H2O2 environment; format: biochemical, calf thymus; conditions: DNA + H2O2, Tris-HCl pH 7.4, agarose gel
Procedure: The characteristics were examined of all substances along with DNA containing H2O2 and Tris-HCl buffer solution (pH: 7.4). The tank solution's gel layer was lifted out after the experiment was finished and put in front of a UV transilluminator. Additionally, each band lane was scrutinized with control (DNA + H2O2).
Using the gel electrophoresis method, the DNA nuclease properties for all samples were assessed under the H2O2 environment. The examined DNA nuclease efficacy for all complexes (1a-2a) was contrasted with free ligand (HL) and CT-DNA alone. The raw data for electrophoretic gels and blots were also enclosed in the electronic supplementary file (Figure S15). In Figure 1, no substantial nuclease activity can be seen in the control (lane 1; DNA + H2O2) even after a lot of time has passed and the free ligand (HL) (lane: 2) was monitored as immobile in an H2O2 environment. […] Furthermore, ROS include O2^•−, H2O2, OH^•, ROOH, ROO^•, HOCl, and ^1O2 (singlet oxygen) and ozone (O3), which play essential roles in living systems. Consequently, it has commonly been acknowledged that ROS plays a dual physiological role in controlling a variety of illnesses as well as cellular homeostasis (self-regulating processes such as thermoregulation, blood glucose regulation, calcium/potassium homeostasis, and osmoregulation). […] Additionally, it is widely known that NADPH oxidase generates reactive oxygen species as a portion of its antibacterial effect on phagocytic cells. Nevertheless, these types of enzymes seem to be present in a variety of other cells as well and may have significant signalling pathway functions. When noncarcinogenic toxicity events occur, ROS has the ability to alter cell function as well as affect the genes of cancer at several levels. OH^• can attack DNA, proteins, and lipids due to its high reactivity among ROS. The hydroxyl radical is a key participant in free radical-mediated hazardous reactions because of its great reactivity. The free radicals are also essential for the redox regulation of many cellular signalling pathways and proper cellular functions. […]

Row | SMILES | DNA cleavage (nuclease activity)
1 | [O-]c1ccccc1N=Cc1ccc(N2CCOCC2)cc1.[O-]c1ccccc1N=Cc1ccc(N2CCOCC2)cc1.[Zn+2].c1ccc(-c2ccccn2)nc1 [(2a), [Zn(L)2(bpy)]] | partially cleaves DNA
2 | Oc1ccccc1N=Cc1ccc(N2CCOCC2)cc1 [(HL), 2-(4-morpholinobenzylideneamino)phenol] | immobile
3 | [Cu+2].[O-]c1ccccc1N=Cc1ccc(N2CCOCC2)cc1.[O-]c1ccccc1N=Cc1ccc(N2CCOCC2)cc1.c1ccc(-c2ccccn2)nc1 [(1a), [Cu(L)2(bpy)]] | complete DNA cleavage
